Active and inactive are the calls of the source.
Tests used:
[1] = target: T1, Probable nicotinate-nucleotide adenylyltransferase (Staphylococcus aureus (strain N315), UniProt P65502); assay type: functional, Staphylococcus aureus subsp. aureus N315; conditions: read-out: IC50_Mean;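 for IC50 Mean: confirmatory dose-response retesting of NadD inhibitor hits first found in an ultra-high-throughput screen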
[2] = target: T1, Probable nicotinate-nucleotide adenylyltransferase; assay type: functional, Staphylococcus aureus subsp. aureus N315
[3] = target: T2, Heat shock factor protein 1 (Mus musculus, UniProt P38532); experiment: inhibition of MG132-induced HSE-luciferase signal, confirmation, cell-based, NIH3T3, luminescence, dose retest (AID 2382); assay type: functional;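 note: NIH3T3 fibroblasts with HSF1-driven luciferase reporter stressed by proteasome inhibitor MG132; luminescence from HSF1-driven luciferase expression after 8 hours of MG132 stress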
T2 sequence (P38532 whole entry): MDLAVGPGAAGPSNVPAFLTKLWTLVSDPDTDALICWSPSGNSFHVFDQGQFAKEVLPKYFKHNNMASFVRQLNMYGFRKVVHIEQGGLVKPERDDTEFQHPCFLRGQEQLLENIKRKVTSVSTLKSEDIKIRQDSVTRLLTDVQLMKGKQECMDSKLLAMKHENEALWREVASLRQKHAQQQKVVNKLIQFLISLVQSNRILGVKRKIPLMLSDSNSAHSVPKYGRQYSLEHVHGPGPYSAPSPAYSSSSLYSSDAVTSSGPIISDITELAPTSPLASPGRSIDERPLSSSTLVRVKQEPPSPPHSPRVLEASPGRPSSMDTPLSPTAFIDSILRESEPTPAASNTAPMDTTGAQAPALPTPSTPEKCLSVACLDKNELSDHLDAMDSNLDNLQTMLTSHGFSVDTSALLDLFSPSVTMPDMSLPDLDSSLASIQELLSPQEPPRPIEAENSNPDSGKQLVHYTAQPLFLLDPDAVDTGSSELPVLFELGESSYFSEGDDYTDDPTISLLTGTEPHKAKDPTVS

[4] = target: T3, Interleukin-8 (Homo sapiens, UniProt P10145); experiment: Dose Response confirmation of uHTS small molecule hits for cystic fibrosis induced NFkb Inhibitors in a TNFa-induced IL8 counterscreen.; assay type: functional; conditions: read-out: IC50_Mean
T3 sequence (P10145 whole entry): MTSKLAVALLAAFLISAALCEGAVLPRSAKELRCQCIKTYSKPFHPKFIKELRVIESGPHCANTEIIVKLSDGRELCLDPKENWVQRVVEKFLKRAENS

[5] = target: T3, Interleukin-8; experiment: Dose Response confirmation of uHTS small molecule hits for cystic fibrosis induced NFkb Inhibitors in a PAF-induced IL8 counterscreen.; assay type: functional; conditions: read-out: IC50_Mean
[6] = Counterscreen for activators of the function of SWI/SNF related, matrix associated, actin dependent regulator of chromatin, subfamily a, member 2 (SMARCA2, BRM): Luminescence-based cell-based high throughput dose response assay to identify non-selective compounds using the VP16 reporter assay.; assay type: functional
[7] = target: SWI/SNF-related matrix-associated actin-dependent regulator of chromatin subfamily A member 2 (Homo sapiens, UniProt P51531); experiment: Luminescence-based cell-based high throughput dose response assay to identify activators of the function of SWI/SNF related, matrix associated, actin dependent regulator of chromatin, subfamily a, member 2 (SMARCA2, BRM).; assay type: functional
[8] = Counterscreen for inhibitors of Trypanosoma brucei methionyl tRNA synthetase (MetRS): Luminescence-based cell-based high throughput dose response assay to identify compounds that are cytotoxic to Jurkat human T lymphocyte cells.; assay type: functional
[9] = target: T4, Methionyl-tRNA synthetase, putative (Trypanosoma brucei brucei, UniProt Q38C91); assay type: functional, Trypanosoma brucei brucei strain 927/4 GUTat10.1
T4 sequence (Q38C91 whole entry): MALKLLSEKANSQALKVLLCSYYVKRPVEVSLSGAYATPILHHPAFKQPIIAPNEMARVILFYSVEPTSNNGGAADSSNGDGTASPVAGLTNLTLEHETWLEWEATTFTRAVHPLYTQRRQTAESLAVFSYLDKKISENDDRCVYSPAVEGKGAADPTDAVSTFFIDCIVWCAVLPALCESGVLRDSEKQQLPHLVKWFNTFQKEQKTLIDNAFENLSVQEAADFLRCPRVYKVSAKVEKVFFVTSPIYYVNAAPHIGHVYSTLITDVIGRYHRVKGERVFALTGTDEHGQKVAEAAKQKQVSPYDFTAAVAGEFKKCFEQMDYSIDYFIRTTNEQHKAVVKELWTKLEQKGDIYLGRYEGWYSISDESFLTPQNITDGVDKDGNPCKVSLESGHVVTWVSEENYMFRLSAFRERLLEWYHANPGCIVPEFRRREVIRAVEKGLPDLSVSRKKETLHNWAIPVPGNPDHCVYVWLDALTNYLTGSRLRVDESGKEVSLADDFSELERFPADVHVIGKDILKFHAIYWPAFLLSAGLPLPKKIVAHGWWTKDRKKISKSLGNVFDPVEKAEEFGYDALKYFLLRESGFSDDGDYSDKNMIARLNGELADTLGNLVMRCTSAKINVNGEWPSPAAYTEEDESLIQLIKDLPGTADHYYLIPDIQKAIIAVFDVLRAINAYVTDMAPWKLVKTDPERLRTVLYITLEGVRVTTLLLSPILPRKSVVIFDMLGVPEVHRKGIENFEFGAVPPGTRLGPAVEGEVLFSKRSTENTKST

[10] = target: T4, Methionyl-tRNA synthetase, putative; assay type: functional, Trypanosoma brucei brucei strain 927/4 GUTat10.1; remark: listed apart in the source
[11] = target: T5, Small ubiquitin-related modifier 1 (Homo sapiens, UniProt P63165); experiment: inhibitors of SUMO1 peptide binding, dose response, biochemical, fluorescence polarization, uHTS hits (AID 624382); assay type: functional; conditions: read-out: IC50_Mean
[12] = target: T6, Low molecular weight phosphotyrosine protein phosphatase (Homo sapiens, UniProt P24666); assay type: functional; conditions: read-out: IC50_Mean;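 note: Dose-response confirmation assay measuring inhibition of LMPTP enzyme activity by fluorescence intensity read-out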
T6 sequence (P24666 whole entry): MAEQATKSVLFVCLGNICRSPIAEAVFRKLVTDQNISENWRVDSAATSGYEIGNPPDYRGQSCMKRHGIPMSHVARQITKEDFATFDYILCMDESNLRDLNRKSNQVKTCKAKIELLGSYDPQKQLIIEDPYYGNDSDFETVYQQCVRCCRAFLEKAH

[13] = target: T5, Small ubiquitin-related modifier 1; experiment: inhibitors of SUMO1 partner interactions, dose response, biochemical, FRET (AID 624383); assay type: functional; conditions: read-out: IC50_Mean
[14] = ARNT/TACC3 interaction disruptors, potency, confirmation, biochemical, AlphaScreen, cherry-picked samples (AID 651703); assay type: functional, Homo sapiens;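 note: His-tagged ARNT PAS-B domain paired with GST-TACC3 E629A dimer coactivator fragment; potency of inhibitors that break up the complex and lower AlphaScreen signal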
[15] = miR-122 activators in hepatoma reporter cells, dose response, cell-based, Huh7 psiCHECK-miR122, Renilla luciferase, cherry-picked (AID 651956); assay type: functional;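 note: huh7 hepatoma cells stably carrying a psiCHECK-2 miR-122 sensor plasmid; renilla luciferase signal reporting endogenous miR-122 activity after 48 h compound exposure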
[16] = target: T7, Corticotropin-releasing factor receptor 2/Corticotropin-releasing factor-binding protein (Homo sapiens, UniProt P24387+Q13324); experiment: activators of CRF receptor 2 with binding protein – uHTS hits, confirmation (AID 602473); assay type: functional; conditions: read-out: EC50_Mean
T7 sequence (Q13324 whole entry): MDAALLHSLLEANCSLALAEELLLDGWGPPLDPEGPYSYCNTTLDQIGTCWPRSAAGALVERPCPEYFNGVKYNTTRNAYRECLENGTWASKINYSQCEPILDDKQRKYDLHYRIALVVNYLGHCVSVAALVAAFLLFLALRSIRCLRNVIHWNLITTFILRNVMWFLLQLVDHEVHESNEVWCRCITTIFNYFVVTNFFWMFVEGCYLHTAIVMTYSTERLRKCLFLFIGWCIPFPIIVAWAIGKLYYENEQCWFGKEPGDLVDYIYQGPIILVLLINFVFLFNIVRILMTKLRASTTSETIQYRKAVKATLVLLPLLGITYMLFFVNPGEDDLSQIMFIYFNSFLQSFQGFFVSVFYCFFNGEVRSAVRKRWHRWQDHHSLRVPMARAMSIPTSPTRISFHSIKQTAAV
T7 sequence (P24387 whole entry): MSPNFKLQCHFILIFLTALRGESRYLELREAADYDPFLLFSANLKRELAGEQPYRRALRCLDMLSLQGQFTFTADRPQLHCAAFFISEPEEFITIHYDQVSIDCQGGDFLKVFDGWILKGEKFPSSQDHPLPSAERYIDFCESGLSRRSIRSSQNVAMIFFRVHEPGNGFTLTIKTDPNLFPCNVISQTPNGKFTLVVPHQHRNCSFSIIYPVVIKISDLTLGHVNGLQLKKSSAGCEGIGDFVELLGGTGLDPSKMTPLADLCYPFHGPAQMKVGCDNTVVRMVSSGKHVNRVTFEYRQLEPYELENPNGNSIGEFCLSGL

[17] = target: T7, Corticotropin-releasing factor receptor 2/Corticotropin-releasing factor-binding protein; experiment: Dose Response confirmation of uHTS hits for small molecule antagonists of the CRF-binding protein and CRF-R2 receptor complex.; assay type: functional; conditions: read-out: IC50_Mean
[18] = CRF-BP/CRF-R2 complex antagonists, dose response, cell-based, uHTS hits, 384-well (AID 651639); assay type: functional, Homo sapiens; conditions: read-out: IC50_Mean
[19] = target: T8, Carboxy-terminal domain RNA polymerase II polypeptide A small phosphatase 1 (Homo sapiens, UniProt Q9GZU7); experiment: inhibitors of CTDSP1, concentration-response testing, biochemical assay, absorbance-based, actives from ultra-high-throughput screening (AID 540297); assay type: functional
T8 sequence (Q9GZU7 whole entry): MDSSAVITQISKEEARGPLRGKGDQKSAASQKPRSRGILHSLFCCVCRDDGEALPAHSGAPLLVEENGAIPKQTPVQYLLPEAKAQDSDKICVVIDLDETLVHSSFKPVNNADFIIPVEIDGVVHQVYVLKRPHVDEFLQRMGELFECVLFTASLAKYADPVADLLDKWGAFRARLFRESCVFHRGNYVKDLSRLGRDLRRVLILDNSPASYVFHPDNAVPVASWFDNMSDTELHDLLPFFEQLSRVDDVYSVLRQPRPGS

[20] = target: T9, Protein skinhead-1 (Caenorhabditis elegans, UniProt P34707); assay type: functional
T9 sequence (P34707 whole entry): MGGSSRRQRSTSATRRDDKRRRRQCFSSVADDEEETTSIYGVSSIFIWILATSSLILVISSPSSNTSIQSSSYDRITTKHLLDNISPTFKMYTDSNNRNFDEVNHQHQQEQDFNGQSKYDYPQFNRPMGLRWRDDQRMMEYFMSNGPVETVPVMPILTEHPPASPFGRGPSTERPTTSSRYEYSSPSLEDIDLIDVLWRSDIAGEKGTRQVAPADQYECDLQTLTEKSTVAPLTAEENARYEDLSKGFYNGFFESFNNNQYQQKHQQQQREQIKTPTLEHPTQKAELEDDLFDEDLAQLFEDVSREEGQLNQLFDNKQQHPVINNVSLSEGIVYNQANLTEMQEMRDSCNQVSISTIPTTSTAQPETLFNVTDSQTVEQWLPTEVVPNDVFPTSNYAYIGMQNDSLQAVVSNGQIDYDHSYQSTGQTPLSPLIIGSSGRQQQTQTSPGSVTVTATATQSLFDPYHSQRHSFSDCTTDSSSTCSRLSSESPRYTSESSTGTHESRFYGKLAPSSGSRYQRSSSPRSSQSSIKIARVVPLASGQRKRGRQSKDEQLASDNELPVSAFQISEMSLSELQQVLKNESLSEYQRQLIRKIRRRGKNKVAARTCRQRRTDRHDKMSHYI

[21] = target: Matrix metalloproteinase-14 (Homo sapiens, UniProt P50281); experiment: Dose Response confirmation of uHTS hits for a small molecule inhibitors of MT1-MMP activation in a fluorescence assay set 1.; assay type: functional

T5 sequence (P63165 whole entry): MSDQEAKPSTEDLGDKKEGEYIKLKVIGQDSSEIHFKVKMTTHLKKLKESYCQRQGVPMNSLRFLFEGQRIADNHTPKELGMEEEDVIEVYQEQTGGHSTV
T1 sequence (P65502 whole entry): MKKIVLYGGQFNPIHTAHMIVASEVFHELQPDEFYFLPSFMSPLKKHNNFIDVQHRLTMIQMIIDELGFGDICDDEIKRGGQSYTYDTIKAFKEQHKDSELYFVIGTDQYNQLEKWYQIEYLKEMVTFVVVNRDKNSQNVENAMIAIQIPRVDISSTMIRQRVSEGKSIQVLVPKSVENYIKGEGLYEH
SWI/SNF-related matrix-associated actin-dependent regulator of chromatin subfamily A member 2, sequence (P51531 whole entry): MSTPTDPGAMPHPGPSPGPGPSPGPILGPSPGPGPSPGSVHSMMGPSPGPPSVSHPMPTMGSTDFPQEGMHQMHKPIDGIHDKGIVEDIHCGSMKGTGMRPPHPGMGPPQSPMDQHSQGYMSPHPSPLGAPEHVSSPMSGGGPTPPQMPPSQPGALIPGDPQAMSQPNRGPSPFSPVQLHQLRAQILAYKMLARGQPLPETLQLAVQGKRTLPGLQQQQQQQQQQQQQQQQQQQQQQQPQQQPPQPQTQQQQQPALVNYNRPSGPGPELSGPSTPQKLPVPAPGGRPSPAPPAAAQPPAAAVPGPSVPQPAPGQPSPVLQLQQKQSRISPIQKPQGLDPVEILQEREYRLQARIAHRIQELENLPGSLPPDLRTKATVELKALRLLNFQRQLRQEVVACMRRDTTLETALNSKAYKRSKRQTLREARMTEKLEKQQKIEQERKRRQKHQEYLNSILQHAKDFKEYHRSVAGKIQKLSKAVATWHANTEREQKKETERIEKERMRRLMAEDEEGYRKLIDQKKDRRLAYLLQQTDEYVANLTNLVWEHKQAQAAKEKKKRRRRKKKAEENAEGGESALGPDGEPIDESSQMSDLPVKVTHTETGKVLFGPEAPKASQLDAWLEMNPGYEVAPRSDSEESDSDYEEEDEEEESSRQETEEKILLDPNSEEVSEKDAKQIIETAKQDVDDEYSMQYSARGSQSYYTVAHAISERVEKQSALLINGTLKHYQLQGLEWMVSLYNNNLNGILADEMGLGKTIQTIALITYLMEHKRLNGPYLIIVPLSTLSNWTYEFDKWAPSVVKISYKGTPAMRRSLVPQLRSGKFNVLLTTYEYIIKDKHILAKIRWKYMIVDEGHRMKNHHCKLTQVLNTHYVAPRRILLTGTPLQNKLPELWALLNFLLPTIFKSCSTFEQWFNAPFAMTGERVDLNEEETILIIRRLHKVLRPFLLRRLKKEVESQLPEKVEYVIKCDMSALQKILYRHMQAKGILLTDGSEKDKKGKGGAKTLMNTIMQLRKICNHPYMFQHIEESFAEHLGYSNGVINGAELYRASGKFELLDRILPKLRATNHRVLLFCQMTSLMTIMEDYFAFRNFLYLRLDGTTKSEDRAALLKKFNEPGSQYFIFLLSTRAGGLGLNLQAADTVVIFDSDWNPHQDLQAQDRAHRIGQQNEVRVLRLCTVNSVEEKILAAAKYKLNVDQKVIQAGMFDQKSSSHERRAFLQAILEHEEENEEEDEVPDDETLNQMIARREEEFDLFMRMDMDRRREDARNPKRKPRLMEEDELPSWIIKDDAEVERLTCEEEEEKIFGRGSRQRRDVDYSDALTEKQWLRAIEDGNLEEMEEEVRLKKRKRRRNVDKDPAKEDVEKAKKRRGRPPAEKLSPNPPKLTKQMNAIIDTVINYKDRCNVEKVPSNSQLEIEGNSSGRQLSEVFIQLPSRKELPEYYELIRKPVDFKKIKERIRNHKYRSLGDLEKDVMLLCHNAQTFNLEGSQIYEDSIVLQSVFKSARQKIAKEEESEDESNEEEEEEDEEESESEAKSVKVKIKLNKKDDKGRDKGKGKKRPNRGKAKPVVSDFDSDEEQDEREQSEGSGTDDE

## O=C(CN1c2ccccc2Sc2ccccc21)NNC(=S)Nc1ccc(Cl)cc1Cl
[1]
  IC50: 52.2 µM (active)
[2]
  IC50: 13.7 µM (active)

## CCN1CCN(Cc2ccc(NC(=O)c3ccc(C)c(NC(=O)c4cccc5[nH]ccc45)c3)cc2C(F)(F)F)CC1
[3]
  EC50: 2.79 µM (active)
[4]
  IC50: 39.9 µM (inactive)
[5]
  IC50: 4.72 µM (active)

## CCOc1ccc(C(=O)N/N=C/c2ccc(-c3ccc(S(=O)(=O)Nc4ncccn4)cc3)o2)cc1
[1]
  IC50: 23.8 µM (active)
[2]
  IC50: 5.34 µM (active)

## CCc1c(C)c2ccc(OC3CCCCC3=O)cc2oc1=O (stereo not drawn)
[6]
  EC50: > 91.2 µM (inactive)
[7]
  EC50: > 91.2 µM (inactive)

## O=C(CSc1nc2ccccc2[nH]1)Nc1nc(-c2ccc(Br)cc2)cs1
[8]
  IC50: 55.6 µM (inactive)
[9]
  IC50: 85.4 µM (inactive)
[10]
  IC50: 90.6 µM (inactive)

## O=C(Nc1ccc2oc(-c3ccncc3)nc2c1)c1ccc2c(c1)OCO2
[11]
  IC50: > 66.6 µM (inactive)
[12]
  IC50: 7.98 µM (active)
[13]
  IC50: 7.12 µM (active)

## CCN(CC)C(=O)CSc1nnc(-c2ccccn2)n1-c1ccc(C)c(C)c1
[14]
  AC50: 92.4 µM (active)

## c1ccc(-n2nnnc2NCCc2c[nH]c3ccccc23)cc1
[15]
  AC50: 9.93 µM (active)

## Cc1noc(C)c1COC(=O)Cc1ccc(Cl)c(Cl)c1
[16]
  EC50: > 53 µM (inactive)
[17]
  IC50: 33.8 µM (active)
[18]
  IC50: > 20 µM (inactive)

## COC(=O)c1ccc(C(=O)Nc2ccc3c(c2)C(=O)NC3=O)cc1
[11]
  IC50: > 66.6 µM (inactive)
[19]
  IC50: 6.87 µM (active)
[13]
  IC50: 5.19 µM (active)

## COCCCn1c(-c2ccc(OC)cc2)cc(C(=O)NC2CCCCCCC2)c1C
[16]
  EC50: > 53 µM (inactive)
[17]
  IC50: 3.95 µM (active)
[18]
  IC50: 11.5 µM (active)

## O=C(NNc1c2ccccc2nc2ccccc12)c1ccc(Cl)cc1
[20]
  IC50: > 100 µM (inactive)
[21]
  IC50: 46.5 µM (inactive)

— ChEMBL document CHEMBL1201862, “PubChem BioAssay data set” (2004)
